The test system of one assay is TAG. The assay can be described thus: TAG lipid buildup inhibition with viability readout – cell-based, panel, Nile Red and DAPI fluorescence, H9c2, dose response (AID 651630).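 Also: cells exposed to compound overnight before fixation and staining.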 The conditions noted are these: H9c2 cells, Nile Red TAG fluorescence, oleic acid.
Another assay concerns DAPI. The description is as above. The conditions noted are these: H9c2 cells, DAPI nuclear fluorescence (cytotoxicity counter-readout), oleic acid.

pIC50: −log10 of the molar value. Activity calls are given as the source filed them.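 The calls were made as follows: active = lipid-stain IC50 at or below a set limit, with nuclear-stain toxicity IC50 at least five times higher; inactive = the rest.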 A value given as a limit tells only on which side of the number the result lay.

The term IC50 denotes the point on the concentration scale where inhibition reaches its midpoint. As usually defined, the pIC50 is the IC50 on a negative log10 scale, so that one unit is a factor of ten. For the compound `COc1ccccc1-c1cc(NC=O)c2ncc(-c3cccc(C(=O)N(C)C)c3)n2c1`, in the assay with TAG (mean of runs), the IC50 is 15.3 µM (inactive). Also, the pIC50 in the assay with TAG (run 1) was 4.76; with TAG (run 2), 4.88. Further, the figures for the IC50 cytotoxicity (DAPI nuclear signal decrease) in the assay with DAPI (mean of runs), with DAPI (run 1) and with DAPI (run 2) were > 25 µM (inactive), greater than 25 µM and greater than 25 µM, respectively.

As to `Cc1ccc(NC(=O)CSc2nnc(C)c(=O)n2N)cc1Cl`, the pIC50 in the assay on TAG (run 1) is 4.62; in the assay with TAG (run 2), less than 4.60. Moreover, the results for the IC50 cytotoxicity (DAPI nuclear signal decrease) in the assay on DAPI (mean of runs), in the assay with DAPI (run 1) and in the assay with DAPI (run 2) were > 25 µM (inactive), greater than 25 µM and greater than 25 µM, respectively.

For `O=C(Nc1nc(-c2ccccc2)cs1)C1CCCN(S(=O)(=O)c2cccc([N+](=O)[O-])c2)C1` (stereo not drawn), the values for the pIC50 in the assay with TAG (run 1) and with TAG (run 2) were 4.66 and less than 4.60, respectively. Further, the IC50 cytotoxicity (DAPI nuclear signal decrease) with DAPI (mean of runs) is > 25 µM (inactive); in the assay on DAPI (run 1), greater than 25 µM; in the assay on DAPI (run 2) it was greater than 25 µM.

As to `N#CCC(=O)N/N=C/c1cn(Cc2ccc(Cl)c(Cl)c2)c2ccccc12`, the pIC50 in the assay on TAG (run 1) was 4.70; in the assay on TAG (run 2), less than 4.60. The IC50 cytotoxicity (DAPI nuclear signal decrease) is > 25 µM (inactive) in the assay on DAPI (mean of runs), greater than 25 µM with DAPI (run 1) and greater than 25 µM in the assay on DAPI (run 2).

`COc1cccc(/C=C/C(=C2/C(=O)N(c3ccccc3)N=C2C)c2ccc(C)cc2)c1OC`: the values for the pIC50 in the assay with TAG (mean of runs), in the assay on TAG (run 1) and in the assay with TAG (run 2) were 5.79, 5.78 and 5.79, respectively. In addition, the IC50 cytotoxicity (DAPI nuclear signal decrease) in the assay with DAPI (run 1) and in the assay with DAPI (run 2) was greater than 25 µM in each case.

As for `O=C(Nc1ccc(-c2csc(Nc3cccc(C(F)(F)F)c3)n2)cc1)c1ccccc1`, the pIC50 with TAG (run 1) is 4.65; with TAG (run 2), less than 4.60. Also, the results for the IC50 cytotoxicity (DAPI nuclear signal decrease) in the assay with DAPI (mean of runs), with DAPI (run 1) and with DAPI (run 2) were > 25 µM (inactive), greater than 25 µM and greater than 25 µM, respectively.

`O=C(c1ccoc1)N1CCN(c2cc(-c3ccncc3)nc3cc(-c4cccc(Cl)c4)nn23)CC1`: the pIC50 was less than 4.60 in the assay with TAG (run 1) and 4.63 with TAG (run 2). The IC50 cytotoxicity (DAPI nuclear signal decrease) is > 25 µM (inactive) in the assay with DAPI (mean of runs), greater than 25 µM with DAPI (run 1) and greater than 25 µM with DAPI (run 2).

Turning to `Cc1cc(C)n(-c2nc3c(c(=O)[nH]c(=O)n3C)n2CC(O)COc2ccc(Cl)cc2Cl)n1` (stereo not drawn), the figures for the pIC50 in the assay with TAG (run 1) and in the assay on TAG (run 2) were 4.95 and less than 4.60, respectively. Further, the IC50 cytotoxicity (DAPI nuclear signal decrease) is > 25 µM (inactive) with DAPI (mean of runs), greater than 25 µM in the assay on DAPI (run 1) and greater than 25 µM in the assay on DAPI (run 2).

`CC(C)Cc1nc2sc3c(NCc4ccco4)ncnc3c2c2c1COC(C)(C)C2`: the IC50 in the assay on TAG (mean of runs) was > 25 µM (inactive). The pIC50 in the assay with TAG (run 1) and in the assay with TAG (run 2) was less than 4.60 each time. In addition, the values for the IC50 cytotoxicity (DAPI nuclear signal decrease) in the assay with DAPI (mean of runs), in the assay with DAPI (run 1) and with DAPI (run 2) were > 25 µM (inactive), greater than 25 µM and greater than 25 µM, respectively.

Take `CCOc1ccc(CCNC(=O)CN2CCN(Cc3ccccc3C)C2=O)cc1OCC`: the pIC50 with TAG (mean of runs) was 5.66; with TAG (run 1), 5.73; in the assay on TAG (run 2), 5.60. Also, the IC50 cytotoxicity (DAPI nuclear signal decrease) with DAPI (run 1) and in the assay with DAPI (run 2) was greater than 25 µM in each case.

With `Cc1ccc(-c2nn(-c3ccccc3)cc2CSC(=N)N)cc1`, the pIC50 in the assay with TAG (mean of runs) is 5.42; in the assay on TAG (run 1), 5.41; in the assay on TAG (run 2), 5.43. The IC50 cytotoxicity (DAPI nuclear signal decrease) in the assay with DAPI (mean of runs) was 21 µM; with DAPI (run 1), 21.1 µM; in the assay with DAPI (run 2), 20.9 µM.

For the compound `COc1cc(C(=O)N2CCN(c3cc(Cl)ccc3Cl)CC2)cc(OC)c1OC`, in the assay on TAG (mean of runs), the IC50 is > 25 µM (inactive). In addition, the pIC50 in the assay on TAG (run 1) and in the assay with TAG (run 2) was less than 4.60 throughout. Moreover, the IC50 cytotoxicity (DAPI nuclear signal decrease) was > 25 µM (inactive) in the assay with DAPI (mean of runs), greater than 25 µM in the assay with DAPI (run 1) and greater than 25 µM in the assay on DAPI (run 2).

`O=C(CCC(=O)N1CCOc2ccc(Cl)cc21)NCCCN1CCC(Cc2ccccc2)CC1`: the pIC50 with TAG (run 1) is less than 4.60; in the assay on TAG (run 2), 5.00. The IC50 cytotoxicity (DAPI nuclear signal decrease) with DAPI (mean of runs) is 15.1 µM (inactive); in the assay with DAPI (run 1), 16 µM; in the assay with DAPI (run 2), 14.2 µM.

As for `O=C(Nc1ccncc1)C1CCCN(S(=O)(=O)c2cccc3cccnc23)C1` (stereo not drawn), the IC50 in the assay on TAG (mean of runs) is > 25 µM (inactive). In addition, the pIC50 with TAG (run 1) and in the assay with TAG (run 2) was less than 4.60 in each case. Besides, the values for the IC50 cytotoxicity (DAPI nuclear signal decrease) with DAPI (mean of runs), in the assay on DAPI (run 1) and in the assay on DAPI (run 2) were > 25 µM (inactive), greater than 25 µM and greater than 25 µM, respectively.

Turning to `CCCCSc1nc2ccc(Nc3nc(N4CCOCC4)nc(N4CCOCC4)n3)cc2s1`, the results for the pIC50 with TAG (mean of runs), in the assay with TAG (run 1) and with TAG (run 2) were 5.32, 5.30 and 5.34, respectively. Also, the IC50 cytotoxicity (DAPI nuclear signal decrease) in the assay on DAPI (run 1) and in the assay on DAPI (run 2) was greater than 25 µM throughout.

As to `COc1ccc(CC(N)c2csc(NC(=O)Nc3ccccc3-c3ccccc3)n2)cc1` (stereo not drawn), the negative logarithm of the IC50 (pIC50) in the assay with TAG (run 1) was less than 4.60; in the assay on TAG (run 2) it was 4.81. Further, the IC50 cytotoxicity (DAPI nuclear signal decrease) was 17.6 µM (inactive) in the assay on DAPI (mean of runs), 19.3 µM in the assay with DAPI (run 1) and 15.9 µM in the assay with DAPI (run 2).

Turning to `CC(C)=CCNc1ncnc2c1c(C#N)cn2C1OC(CO)C(O)C1O` (stereo not drawn), the IC50 in the assay with TAG (mean of runs) is > 25 µM (inactive). The pIC50 in the assay with TAG (run 1) and with TAG (run 2) was less than 4.60 throughout. Further, the IC50 cytotoxicity (DAPI nuclear signal decrease) is > 25 µM (inactive) with DAPI (mean of runs), greater than 25 µM in the assay with DAPI (run 1) and greater than 25 µM in the assay with DAPI (run 2).

Take `CCCCCc1cc(=O)oc2c(C(CCN3CCN(c4ccccc4)CC3)c3ccc(N(C)C)cc3)c(OC)cc(OC)c12` (stereo not drawn): the pIC50 in the assay on TAG (mean of runs) was 4.91; in the assay with TAG (run 1), 4.95; in the assay with TAG (run 2), 4.88. The figures for the IC50 cytotoxicity (DAPI nuclear signal decrease) in the assay with DAPI (mean of runs), with DAPI (run 1) and in the assay with DAPI (run 2) were > 25 µM (inactive), greater than 25 µM and greater than 25 µM, respectively.

In the case of `C[C@@H]1CN([C@@H](C)CO)C(=O)c2cccc(NC(=O)C3CCCCC3)c2O[C@@H]1CN(C)Cc1ccc(Cl)c(Cl)c1`, the pIC50 is 4.94 in the assay with TAG (mean of runs), 5.01 in the assay with TAG (run 1) and 4.88 in the assay with TAG (run 2). Also, the IC50 cytotoxicity (DAPI nuclear signal decrease) in the assay with DAPI (mean of runs) was > 25 µM (inactive); in the assay on DAPI (run 1), greater than 25 µM; with DAPI (run 2), greater than 25 µM.

For the compound `COc1ccccc1-c1cc(C(F)(F)F)nc(S(=O)(=O)CCCC(=O)NC(C)C)n1`, the pIC50 in the assay with TAG (mean of runs) is 4.95; with TAG (run 1) it was 4.87; with TAG (run 2) it was 5.06. The IC50 cytotoxicity (DAPI nuclear signal decrease) was 18.4 µM (inactive) in the assay on DAPI (mean of runs), 19.9 µM with DAPI (run 1) and 17 µM in the assay with DAPI (run 2).

Turning to `COc1ccc(-c2sc3ccc(N4CCOCC4)cc3c2C#CC(C)(C)O)cc1`, in the assay with TAG (mean of runs), the IC50 is > 25 µM (inactive). In addition, the pIC50 in the assay on TAG (run 1) and in the assay on TAG (run 2) was less than 4.60 throughout. For the same compound, the results for the IC50 cytotoxicity (DAPI nuclear signal decrease) in the assay with DAPI (mean of runs), in the assay on DAPI (run 1) and in the assay on DAPI (run 2) were > 25 µM (inactive), greater than 25 µM and greater than 25 µM, respectively.

For `Cn1cc(/C=N/n2cnc3scc(-c4ccc(Cl)cc4)c3c2=O)c2ccccc21`, the results for the pIC50 in the assay with TAG (run 1) and in the assay on TAG (run 2) were 5.24 and greater than 6.11, respectively. The IC50 cytotoxicity (DAPI nuclear signal decrease) in the assay on DAPI (run 1) and in the assay with DAPI (run 2) was greater than 25 µM each time.

Take `CCN(CC)CCn1c(SCC(=O)Nc2cccc(OC)c2)nc2c(sc3ccccc32)c1=O`: the pIC50 is 4.86 with TAG (mean of runs), 4.78 with TAG (run 1) and 4.98 in the assay on TAG (run 2). Besides, the IC50 cytotoxicity (DAPI nuclear signal decrease) in the assay with DAPI (mean of runs) is > 25 µM (inactive); in the assay with DAPI (run 1) it was greater than 25 µM; with DAPI (run 2), greater than 25 µM.

Turning to `COc1ccc(OC)c(C2CC(c3ccccc3)=NN2C(=S)Nc2ccccc2)c1` (stereo not drawn), the IC50 in the assay on TAG (mean of runs) was > 25 µM (inactive). For the same compound, the pIC50 in the assay with TAG (run 1) and in the assay on TAG (run 2) was less than 4.60 in each case. Further, the IC50 cytotoxicity (DAPI nuclear signal decrease) in the assay on DAPI (mean of runs) is > 25 µM (inactive); in the assay with DAPI (run 1), greater than 25 µM; in the assay with DAPI (run 2) it was greater than 25 µM.

Turning to `O=C(Nc1ccc(-c2csc(Nc3ccc(Cl)cc3)n2)cc1)c1cc([N+](=O)[O-])cc(C(F)(F)F)c1`, the results for the pIC50 in the assay on TAG (mean of runs), in the assay with TAG (run 1) and in the assay with TAG (run 2) were 5.07, 5.18 and 4.98, respectively. Moreover, the results for the IC50 cytotoxicity (DAPI nuclear signal decrease) in the assay with DAPI (mean of runs), with DAPI (run 1) and in the assay on DAPI (run 2) were > 25 µM (inactive), greater than 25 µM and greater than 25 µM, respectively.

In the case of `c1ccc(-c2csc(NNC3=NCCCCC3)n2)cc1`, the pIC50 in the assay on TAG (mean of runs) was 5.44; in the assay on TAG (run 1) it was 5.50; with TAG (run 2) it was 5.38. Further, the IC50 cytotoxicity (DAPI nuclear signal decrease) in the assay with DAPI (run 1) and in the assay on DAPI (run 2) was greater than 25 µM in each case.

As to `CCOC(=O)CSc1cccc2cccnc12`, the IC50 in the assay with TAG (mean of runs) is > 25 µM (inactive). Besides, the pIC50 in the assay on TAG (run 1) and in the assay on TAG (run 2) was less than 4.60 each time. Moreover, the IC50 cytotoxicity (DAPI nuclear signal decrease) with DAPI (mean of runs) was > 25 µM (inactive); with DAPI (run 1), greater than 25 µM; in the assay with DAPI (run 2) it was greater than 25 µM.

Regarding `CCOc1ccc(NC(=O)c2ccc(NC(=O)CSc3nc4ccccc4c(=O)[nH]3)cc2)cc1`, the pIC50 is 4.61 in the assay on TAG (run 1) and less than 4.60 in the assay with TAG (run 2). Besides, the values for the IC50 cytotoxicity (DAPI nuclear signal decrease) in the assay with DAPI (mean of runs), in the assay on DAPI (run 1) and with DAPI (run 2) were > 25 µM (inactive), greater than 25 µM and greater than 25 µM, respectively.

Source of the values: PubChem BioAssay AID651630 (Sanford-Burnham Center for Chemical Genomics, 2012).
